Experimental data published in ChEMBL document CHEMBL3797054, “Discovery of a series of 8-(2,3-dihydro-1,4-benzoxazin-4-ylmethyl)-2-morpholino-4-oxo-chromene-6-carboxamides as PI3Kβ/δ inhibitors for the treatment of PTEN-deficient tumours” (Bioorg Med Chem Lett, 2016).

Key:
[1] = Intrinsic clearance in human hepatocytes assessed per million cells; type: ADME, cell-based, Hepatocyte; settings: read-out: CLH
[2] = AUC in hairy mouse at 30 umol/kg, po; type: ADME, organism-based; settings: in vivo
[3] = Clearance in hairy mouse blood at 5 umol/kg, iv and 30 umol/kg, po; type: ADME, organism-based
[4] = Volume of distribution at steady state in hairy mouse blood at 5 umol/kg, iv and 30 umol/kg, po; type: ADME, organism-based; settings: read-out: Vdss
[5] = Oral bioavailability in hairy mouse blood at 30 umol/kg; type: ADME, organism-based
[6] = Clearance in dog blood at 4 umol/kg, iv and 10 umol/kg, po; type: ADME, organism-based, Canis lupus familiaris
[7] = Volume of distribution at steady state in dog blood at 4 umol/kg, iv and 10 umol/kg, po; type: ADME, organism-based, Canis lupus familiaris; settings: read-out: Vdss
[8] = Oral bioavailability in dog blood at 10 umol/kg; type: ADME, organism-based, Canis lupus familiaris
Hepatocyte = assay: Intrinsic clearance in mouse hepatocytes assessed per million cells; type: ADME, cell-based
[9] = Intrinsic clearance in dog hepatocytes assessed per million cells; type: ADME, cell-based, Canis lupus familiaris, Hepatocyte
physchem = settings: buffer, pH 7.4
in vitro = settings: human, Caco-2

SMILES | hepatocyte CLint [1] [µL/min/1e6 cells] | AUC [2] [µM·h] | logD (physchem) | Papp A→B at 2 h, 10 µM (in vitro) [×10⁻⁶ cm/s] | further results
CN(C)C(=O)c1cc(CN(C)c2cc(F)cc(F)c2)c2oc(N3CCOCC3)cc(=O)c2c1 | < 5 | 4.9 | – | – | –
C[C@@H]1CN(c2cc(=O)c3cc(C(=O)N4CCOCC4)cc(CN4CCOc5c(F)cccc54)c3o2)CCO1 | < 3 | 1 | – | – | –
CN(C)C(=O)c1cc(CN2CCOc3c(F)cccc32)c2oc(N3CCOCC3)cc(=O)c2c1 | < 1 | 3.9 | 1.7 | 6.5 | clearance [3]: 49 mL/min/kg; Vd [4]: 1.9 L/kg; bioavailability [5]: 47%; clearance [6]: 13 mL/min/kg; Vd [7]: 1.6 L/kg; bioavailability [8]: 63%; hepatocyte CLint (Hepatocyte): 21 µL/min/1e6 cells; hepatocyte CLint [9]: 4 µL/min/1e6 cells
C[C@@H]1CN(c2cc(=O)c3cc(C(=O)N4CCOCC4)cc(CN4CCOc5c(F)cc(F)cc54)c3o2)CCO1 | < 3 | – | – | – | –
C[C@@H]1CN(c2cc(=O)c3cc(C(=O)N(C)C)cc(CN4CCOc5c(F)cccc54)c3o2)CCO1 | < 3 | 7.3 | 2 | 28 | –
C[C@@H]1CN(c2cc(=O)c3cc(C(=O)N(C)C)cc(CN(C)c4cc(F)cc(F)c4)c3o2)CCO1 | 5 | 15.3 | 2.7 | 55 | –
C[C@@H]1CN(c2cc(=O)c3cc(C(=O)N(C)C)cc(CN4CCOc5ccc(F)cc54)c3o2)CCO1 | 15 | – | 2.3 | – | –
COCCN(Cc1cc(C(=O)N(C)C)cc2c(=O)cc(N3CCO[C@H](C)C3)oc12)c1cc(F)cc(F)c1 | 14 | – | 2.2 | 14 | –
CN(C)C(=O)c1cc(CN2CCOc3ccc(F)cc32)c2oc(N3CCOCC3)cc(=O)c2c1 | 12 | – | 1.9 | – | –
CN(C)C(=O)c1cc(CN(CC#N)c2cc(F)cc(F)c2)c2oc(N3CCOCC3)cc(=O)c2c1 | < 3 | – | 1.5 | – | –
CN(C)C(=O)c1cc(CN2CCOc3c(F)cc(F)cc32)c2oc(N3CCOCC3)cc(=O)c2c1 | 7 | 4.4 | 2.1 | 9 | –
COCCN(Cc1cc(C(=O)N(C)C)cc2c(=O)cc(N3CCOCC3)oc12)c1cc(F)cc(F)c1 | 8 | 2.4 | 2.1 | 11 | –
CC(c1cc(C(=O)N(C)C)cc2c(=O)cc(N3CCOCC3)oc12)N1CCOc2c(F)cc(F)cc21 (configuration not stated) | – | – | 2 | – | –
C[C@@H]1CN(c2cc(=O)c3cc(C(=O)N4CCOCC4)cc(CN4CCOc5ccc(F)cc54)c3o2)CCO1 | 4 | 2.8 | 2 | 11 | –
C[C@@H]1CN(c2cc(=O)c3cc(C(=O)N(C)C)cc(CN4CCOc5c(F)cc(F)cc54)c3o2)CCO1 | 8 | – | 2.3 | 25 | –
CN(C)C(=O)c1cc(CN(CCC#N)c2cc(F)cc(F)c2)c2oc(N3CCOCC3)cc(=O)c2c1 | < 3 | – | 1.8 | – | –
